Results from article PMC12133000 (PLOS One, 2025).
Read-outs that look alike come from different tables or passages of the source.

How the values were obtained:
[1] = biological target: rat liver microsomes (RLMs); assay: Inhibitory mechanism (Ki, αKi, Lineweaver-Burk plots) in RLMs; conditions: read-out: inhibitory constant (Ki), substrate rivaroxaban
Text: Ki and αKi values were computed, and the inhibitory mechanism was examined using Lineweaver–Burk plots.

[2] = test system: rat liver microsomes (RLMs); assay: EGFR TKI screening: rivaroxaban metabolite M-2 formation in RLM incubation; format: in vitro ADME
Procedure: The system was preincubated at 37 °C for 5 min, followed by the addition of NADPH (1 mM) to initiate the reaction. After incubating for an additional 30 min, a 200 μL of acetonitrile solution containing 200 ng/mL midazolam was introduced. The mixture was vortexed for 30 s, centrifuged at 13000 rpm for 5 min, and the supernatant was removed. Three samples were collected for each group.

CYP2J2 = conditions: cited from earlier work; for inhibition of rivaroxaban hydroxylation by CYP2J2: in vitro ref 24
[3] = patients on rivaroxaban, combination with clarithromycin ref 33; cited from earlier work
P-gp = test system: P-gp; set-up: method as in PMID 35174529; conditions: in vitro, combination with rivaroxaban ref 21; read-out: IC50 (inhibitory properties of TKIs on DOACs, P-gp mediated); cited from earlier work
CYP3A4 = conditions: in vitro ref 25; cited from earlier work
[4] = combination with TKI ref 25; cited from earlier work

For `C=CC(=O)Nc1cccc(Oc2nc(Nc3ccc(N4CCN(C)CC4)c(F)c3)nc3[nH]ccc23)c1` [avitinib, Avitinib], the Ki [1] was 3.24 µM, the “ratio of the metabolite concentration relative to the control” value ([2]; 100 μM EGFR TKI, 0.5 mg/mL RLMs, rivaroxaban metabolite M-2, average) was 5.6% and the “effect on rivaroxaban metabolism (metabolite generation rate vs control)” value (“effect … (metabolite generation rate vs control)” for short) ([2]; 100 μM EGFR TKI, RLMs) was “significantly inhibited”. The “inhibition pattern with rivaroxaban as probe substrate” value (CYP2J2) was “atypical inhibitory kinetics” and the “inhibition of rivaroxaban hydroxylation by CYP2J2” value (CYP2J2) was “concentration-dependent inhibition”.

For `CC[C@H]1OC(=O)[C@H](C)[C@@H](O[C@H]2C[C@@](C)(OC)[C@@H](O)[C@H](C)O2)[C@H](C)[C@@H](O[C@@H]2O[C@H](C)C[C@H](N(C)C)[C@H]2O)[C@](C)(OC)C[C@@H](C)C(=O)[C@H](C)[C@@H](O)[C@]1(C)O` [clarithromycin], the “increase in the AUC value for rivaroxaban” value [3] is given as “two-fold increase”.

For `COc1cc2ncnc(Nc3ccc(F)c(Cl)c3)c2cc1NC(=O)/C=C/CN1CCCCC1` [dacomitinib], the “effect … (metabolite generation rate vs control)” value ([2]; 100 μM EGFR TKI, RLMs) was “significantly inhibited”.

For `C#Cc1cccc(Nc2ncnc3cc(OCCOC)c(OCCOC)cc23)c1` [erlotinib], the IC50 (P-gp) is given as under 10 µM.

In the case of `COc1cc2ncnc(Nc3ccc(F)c(Cl)c3)c2cc1OCCCN1CCOCC1` [gefitinib, Gefitinib], the “inhibition of CYP3A4-mediated rivaroxaban metabolism” value (CYP3A4) is listed as “potently inhibited”.

For `Cc1ccc(NC(=O)c2ccc(CN3CCN(C)CC3)cc2)cc1Nc1nccc(-c2cccnc2)n1` [imatinib], the “increase of rivaroxaban AUC” value [4] is given as 119.96% and the “increase of rivaroxaban Cmax” value [4] is given as 90.43%.

In the case of `CS(=O)(=O)CCNCc1ccc(-c2ccc3ncnc(Nc4ccc(OCc5cccc(F)c5)c(Cl)c4)c3c2)o1` [lapatinib], the “effect … (metabolite generation rate vs control)” value [2] is reported as “significantly inhibited”.

With `CCOc1cc2ncc(C#N)c(Nc3ccc(OCc4ccccn4)c(Cl)c3)c2cc1NC(=O)/C=C/CN(C)C` [neratinib] the “effect … (metabolite generation rate vs control)” value [2] was “significantly inhibited”.

For `C=CC(=O)Nc1cc(Nc2nccc(-c3cn(C)c4ccccc34)n2)c(OC)cc1N(C)CCN(C)C` [osimertinib], the “inhibition pattern with rivaroxaban as probe substrate” value (CYP2J2) is given as “competitive inhibition” and the “inhibition of rivaroxaban hydroxylation by CYP2J2” value (CYP2J2) is given as “concentration-dependent inhibition”.

For `CCN(CC)CCNC(=O)c1c(C)[nH]c(/C=C2\C(=O)Nc3ccc(F)cc32)c1C` [sunitinib], the “reduction in exposure to rivaroxaban in vivo” value [4] is given as 62.32%.
